Experimental findings from US12392768B2, “Methods for determining blood gas or metabolic parameters” (RADIOMETER MEDICAL APS, priority 2019, dated 2025) are described below.

“Also recorded” adds a separate entry of the source. Counter-ions that a name gives are not always drawn.

The subject of assay [1] is platelets. The assay can be described thus: Manual count of single platelets and platelet aggregates in heparinized blood with anti-platelet drug candidates (Example 1). To be noted: heparinized venous blood; for platelet count compared to LiHep and PicoSAM controls: L-Arginine 600 μM and 6 mM, dipyridamole 10 and 100 μM; for count of single platelets compared to EDTA reference / number of platelet aggregates compared to EDTA control: two concentration levels per drug.
Protocol: Each experiment was conducted on a separate day with blood from one voluntary donor testing one anti-platelet drug candidate. For each experiment PICO70 syringe samplers (Radiometer Medical ApS) were prepared just before sample drawing. For “LiHep” (Liquid Heparin) conditions, PICO70 samplers were emptied of the gold ball and heparin brick and 15 μl of aqueous liquid balanced heparin comprising heparin lithium (Celsus Laboratories) and heparin sodium (Celsus Laboratories) (final heparin conc. 60 IU/mL blood) and 15 μl of the solvent of the tested drug were added. For “PicoSAM” conditions, unmodified PICO70 samplers (with gold ball and heparin brick) were used and 15 μl of the solvent of the respective tested drug was added. For “LiHep xxx drug” conditions, PICO70 samplers were emptied as described for LiHep and 15 μl of liquid balanced heparin (final heparin conc. 60 IU/mL blood) and 15 μl of the dissolved tested drug were added. For “PicoSAM xxx drug” conditions, unmodified PICO70 samplers (with gold ball and heparin brick) were used and 15 μl of the dissolved tested drug was added. […] 600 μM and 6 mM) and dipyridamole (Sigma, D9766; dissolved in 1:10 or 1:100 DMSO in saline, final conc. 10 and 100 μM). An EDTA tube (BD Vacutainer with spray-coated K2EDTA, 10 ml) and duplicate samples of all conditions of PICO70 syringe samplers were filled by drawing venous blood via a butterfly needle using a sealed VTC (vented tip cap) to fill the otherwise self-aspirating PICO70 samplers with 1.5 mL venous whole blood. Samplers were inverted 8 times immediately after drawing to insure proper anti-coagulation of the samples. The blood samples were mixed gently by hand (samplers without gold ball) or on a SAM mixer (Radiometer Medical ApS) for 15 minutes after drawing the sample. Mixed samples were fixed immediately with 10% formalin solution (1:1 dilution of blood in formalin) for at least 10 minutes and further diluted 1:10 in platelet dilution solution to hemolyze red blood cells (RBCs) to assessed manual platelet count using a hemocytometer. […] Single platelet counts were adjusted for dilution with liquid heparin and or dissolved drug solution to calculate single platelet concentrations.

Assay [2] has as its system platelets. The assay can be described thus: Manual platelet count versus EDTA reference (Example 4). Type of assay: cell-based. To be noted: for Mean Manual PLT count: Iloprost 1 μM in PicoSAM, EDTA reference.
Protocol: For each experiment PICO70 syringe samplers (Radiometer Medical ApS) were prepared just before sample drawing. For “LiHep” (Liquid Heparin) conditions, PICO70 samplers were emptied of the gold ball and heparin brick and 15 μl of aqueous liquid balanced heparin comprising heparin lithium (Celsus Laboratories) and heparin sodium (Celsus Laboratories) (final heparin conc. 60 IU/mL blood) and 15 μl of the solvent of the tested drug were added. For “PicoSAM” conditions, unmodified PICO70 samplers (with gold ball and heparin brick) were used and 15 μl of the solvent of the respective tested drug was added. For “LiHep xxx drug” conditions, PICO70 samplers were emptied as described for LiHep and 15 μl of liquid balanced heparin (final heparin conc. 60 IU/mL blood) and 15 μl of the dissolved tested drug were added. For “PicoSAM xxx drug” conditions, unmodified PICO70 samplers (with gold ball and heparin brick) were used and 15 μl of the dissolved tested drug was added. […] An EDTA tube (BD Vacutainer with spray-coated K2EDTA, 10 ml) and duplicate samples of all conditions of PICO70 syringe samplers were filled by drawing venous blood via a butterfly needle using a sealed VTC (vented tip cap) to fill the otherwise self-aspirating PICO70 samplers with 1.5 mL venous whole blood. Samplers were inverted 8 times immediately after drawing to insure proper anti-coagulation of the samples. The blood samples were mixed gently by hand (samplers without gold ball) or on a SAM mixer (Radiometer Medical ApS) for 15 minutes after drawing the sample. Mixed samples were fixed immediately with 10% formalin solution (1:1 dilution of blood in formalin) for at least 10 minutes and further diluted 1:10 in platelet dilution solution to hemolyze red blood cells (RBCs) to assessed manual platelet count using a hemocytometer. […] Single platelet counts were adjusted for dilution with liquid heparin and or dissolved drug solution to calculate single platelet concentrations.
For assay [3], the system named is platelets. As to the kind of experiment: Microscopic wet mount images of fixed blood samples, platelet aggregation (Example 2). Type of assay: cell-based. The note with it: 40x phase contrast, eptifibatide 20 μM added to heparin. An excerpt: Venous blood samples drawn, mixed and fixed with 10% formalin solution, as described before in Example 1 were used to prepare wet mounts on a glass slide and covered with a glass coverslip. Wet mount samples of fixed blood cells were then imaged with a Leica 750 microscope using a 40× phase-contrast air objective.

Assay [4] relates to platelets. The assay can be described thus: ABX platelet count, automated hematology analyzer (Example 4). It counts as cell-based. The note with it: for Mean ABX PLT count: Iloprost 1 μM in PicoSAM, EDTA reference. As to the method:
Blood samples drawn and mixed after 15 minutes as described above were assessed with an automated hematology analyzer (Horiba, ABX Pentra 60C+) (ABX) for complete blood count (CBC) with 5-diff including WBC concentration, platelet concentration, mean platelet volume (MPV), concentrations and fractions of neutrophils, lymphocytes, monocytes, eosinophils and basophils, RBC concentration, hematocrit, hemoglobin concentration, RBC descriptive parameters (MCV, MCH, MCHC, RDW). Samples were prepared from several donors. Measured platelet concentration was used to compare to manually assessed platelet concentrations of iloprost heparin samples (in PICO70 samplers) and EDTA anti-coagulated samples. For control, EDTA samples with no platelet aggregates are used as reference measurement for the measured automated ABX platelet concentration.

In another assay the test system is platelets and WBCs. The assay can be described thus: Wet mount images of stained and hemolyzed blood samples (Example 3). It counts as cell-based. The note with it: for WBC aggregates / platelet satellinism (platelets binding to WBCs) / platelets (single or aggregated) in stained wet mounts: PicoSAM samples, tirofiban 1 μM, eptifibatide 20 μM, iloprost 100 nM, EDTA anti-coagulated blood. As to the method: Venous blood samples were drawn and mixed as described before in Example 1 and used to prepare stained wet mounts images. Blood samples were mixed with a staining and hemolyzing agent (methylene blue and deoxycholic acid, respectively) and incubated at 47° C. in a water bath for 30 seconds. Stained and hemolyzed blood samples were then prepared in wet mount samples on a glass slide and covered with a glass coverslip. Images of stained samples were then acquired with a Leica 750 microscope using a 40× air objective in bright field mode. An image processing software (FIJI, ImageJ) was used to select regions of interest (ROIs) of representative stained WBCs from the images.

Consider `OCCN(CCO)c1nc(N2CCCCC2)c2nc(N(CCO)CCO)nc(N3CCCCC3)c2n1` [Dipyridamole, dipyridamole], for which the “platelet count compared to LiHep and PicoSAM controls” value with platelets [1] is on record as “slightly higher”.

Regarding `O=C(O)CN(CCN(CC(=O)O)CC(=O)O)CC(=O)O` [EDTA, Ethylenediaminetetraacetic acid], the “Mean Manual PLT count” value in the assay with platelets [2] (Donor ID 4) worked out at 200 PLT/nl; in the assay with platelets [2] (Donor ID 5), 242 PLT/nl; in the assay with platelets [2] (Donor ID 6) it was 189 PLT/nl; in the assay with platelets [2] (Donor ID 7), 249 PLT/nl; in the assay on platelets [2] (Donor ID 8), 207 PLT/nl; in the assay with platelets [2] (Donor ID 9), 255 PLT/nl. For the same compound, the “platelet aggregates in microscopic images of blood samples” value (from here on “platelet aggregates … of blood samples”) in the assay on platelets [3] was “prevents platelet activation and maintains single platelets; also recorded: cannot be seen”. Further, the “Mean ABX PLT count” value with platelets [4] (Donor ID 4) was 200 PLT/nl; in the assay with platelets [4] (Donor ID 5), 259 PLT/nl; in the assay on platelets [4] (Donor ID 6) it was 185 PLT/nl; with platelets [4] (Donor ID 7), 240 PLT/nl; in the assay on platelets [4] (Donor ID 8), 202 PLT/nl; with platelets [4] (Donor ID 9) it was 236 PLT/nl. Also, the WBC aggregates result in the assay with platelets and WBCs was “same results”. Besides, in the assay on platelets and WBCs, the “platelet satellinism (platelets binding to WBCs)” value is reported as “same results”. Also, the “platelets (single or aggregated) in stained wet mounts” value (shortened to “platelets (single or aggregated)”) in the assay on platelets and WBCs was “same results”.

Take `CC#CCC(C)[C@H](O)/C=C/[C@@H]1[C@H]2C/C(=C/CCCC(=O)O)C[C@H]2C[C@H]1O` (stereo partly drawn) [Iloprost, iloprost]: the “Mean Manual PLT count” value turned out to be 198 PLT/nl with platelets [2] (Donor ID 4); 242 PLT/nl in the assay on platelets [2] (Donor ID 5); 154 PLT/nl with platelets [2] (Donor ID 6); 247 PLT/nl in the assay with platelets [2] (Donor ID 7); 203 PLT/nl in the assay with platelets [2] (Donor ID 8); 202 PLT/nl in the assay on platelets [2] (Donor ID 9). Also, the “average performance of platelet count compared to EDTA samples as reference, manual count” value in the assay on platelets [2] (PicoSAM 100 nM iloprost, one donor) came to 97%; with platelets [2] (PicoSAM 1 μM iloprost, eight donors), 93%. Besides, the “Mean ABX PLT count” value in the assay on platelets [4] (Donor ID 4) is recorded as 204 PLT/nl; in the assay on platelets [4] (Donor ID 5) it was 253 PLT/nl; in the assay on platelets [4] (Donor ID 6), 173 PLT/nl; in the assay with platelets [4] (Donor ID 7), 233 PLT/nl; in the assay with platelets [4] (Donor ID 8) it was 191 PLT/nl; in the assay with platelets [4] (Donor ID 9), 216 PLT/nl. In addition, in the assay on platelets [4] (PicoSAM 1 μM iloprost, seven donors), the “average performance of platelet count compared to EDTA samples as reference, ABX platelet count” value was 97%. Moreover, the “WBC aggregation in the blood sample” value in the assay on platelets and WBCs is listed as “very low WBC aggregation”. Besides, the WBC aggregates entry with platelets and WBCs is given as “not platelet satellinism or WBC aggregates”. Moreover, the “platelet satellinism (platelets binding to WBCs)” value in the assay with platelets and WBCs is “not platelet satellinism”. In addition, the “platelets (single or aggregated)” value in the assay with platelets and WBCs is “single platelets”. For the same compound, the “count of single platelets compared to EDTA reference” value (shortened to “count … compared to EDTA reference”) with platelets [1] is “comparable”. Besides, the “number of platelet aggregates compared to EDTA control” value (from here on “number … compared to EDTA control”) in the assay with platelets [1] is “no or few”.

For `N=C(N)NCCC[C@H](N)C(=O)O` [L-Arginine], in the assay with platelets [1], the “count … compared to EDTA reference” value is “decreased”; the “number … compared to EDTA control” value was “higher”; the “platelet count compared to LiHep and PicoSAM controls” value is recorded as “slightly higher”.

As to `Clc1ccccc1CN1CCc2sccc2C1` [Ticlopidine, ticlopidine hydrochloride], in the assay on platelets [1], the “count … compared to EDTA reference” value is given as “similar”.

For the compound `CCCCS(=O)(=O)N[C@@H](Cc1ccc(OCCCCC2CCNCC2)cc1)C(=O)O` [Tirofiban, tirofiban hydrochloride monohydrate], in the assay with platelets and WBCs, the WBC aggregates entry is listed as “WBC aggregates were also observed”, the “platelet satellinism (platelets binding to WBCs)” value is listed as “platelet satellinism” and the “platelets (single or aggregated)” value is “single platelets”. Besides, in the assay with platelets [1], the “count … compared to EDTA reference” value is “comparable” and the “number … compared to EDTA control” value is listed as “no or few”.

Heparin: the “platelet aggregates … of blood samples” value with platelets [3] is on record as “allows or even potentiates platelet aggregation; also recorded: showed platelet aggregates”.

As for eptifibatide acetate, the “platelet aggregates … of blood samples” value in the assay on platelets [3] was “cannot be observed; also recorded: cannot be seen”. In the assay with platelets and WBCs, the WBC aggregates entry is “WBC aggregates were also observed”, the “platelet satellinism (platelets binding to WBCs)” value is recorded as “platelet satellinism” and the “platelets (single or aggregated)” value was “single platelets”. In the assay on platelets [1], the “count … compared to EDTA reference” value was “comparable” and the “number … compared to EDTA control” value is on record as “no or few”.
